Measurements taken from PMC8861095, “Neurotoxicological profile of the hallucinogenic compound 25I-NBOMe” (Scientific Reports, 2022).

What was measured:
[1] = system: H9c2 cells; conditions: in vitro; cited from earlier work
[2] = system: primary mice cardiomyocytes; conditions: in vitro; cited from earlier work
[3] = system: QT interval; conditions: electrocardiography in rats; cited from earlier work
[4] = 25I-NBOMe distribution in rat blood plasma and brain regions (LC–MS/MS, ESI ion trap); format: in vivo
Experimental: (§1) Animals received single or multiple (once per day for seven days) subcutaneous injections of 25I-NBOMe dissolved in 0.9% NaCl at a dose of 0.3 mg/kg/2 ml. The control group was treated with 0.9% NaCl solution in the same way. All procedures were performed 72 h after the last injection. The time point of 72 h was chosen due to the possible generation of neurotoxicity via oxidative stress caused by reactive oxygen species (ROS). Exceptionally, for initial 25I-NBOMe brain distribution studies, rats received the drug in the dose of 1 and 10 mg/kg and were sacrificed 15 min after the drug administration. The rat blood plasma and brain tissues were collected immediately after rats’ decapitation. LSD (0.05 mg/kg, ip) was given daily for 7 days in a volume of 1 ml/kg, while MDMA 5 mg/kg, ip was injected in a volume of 2 ml/kg every second day (overall 4 injections).
The presence of 25I-NBOMe in the rat brain regions and blood serum was analyzed with electrospray ion trap mass spectrometry (Amazon SL from Bruker Daltonics, Bremen, Germany). At 72 h after the last injection with 25I-NBOMe or 15 min after injection of single low and high (1 and 10 mg/kg) dose, animals were sacrificed by decapitation. Brains were removed and the frontal cortex, striatum, nucleus accumbens, and hippocampus were dissected. The blood samples were also collected after 25I-NBOMe injections. Tissue samples were homogenized in an ice-cold 0.1 M HClO4, and were centrifuged at 10,000×g for 10 min at 4 °C. Blood was incubated for 30 min and then centrifuged for 15 min, 3000 rpm at 4 °C. The collected blood serum and tissue supernatants were frozen at − 80 °C until the time of mass spectrometry analysis. The value pH of samples was about 2. To purify the samples, solid phase extraction (SPE) columns MacroSpin Columns Silica C18 (The Nest Group, Inc., Southborough, USA) were used. Initially, columns were activated with 100% methanol (MeOH) solution by double centrifugation at 110×g for 1 min. Next, to remove MeOH, 2% acetonitrile (ACN) with 0.1% HCOOH was used. Subsequently, the columns were washed twice with the blood and tissue samples. To remove adenosine-5'-diphosphate (ADP) that has the same precursor ion as 25I-NBOMe the columns were washed twice with 2% ACN. Finally, to wash out 25I-NBOMe, the column was washed twice with 80% ACN with 0.1% HCOOH. Samples were left to dry in SpeedVac Vacuum Concentrator (Labconco, Kansas City, USA) overnight. The following day, samples were dissolved in 10% ACN with 0.1% HCOOH and injected to the LC–MS/MS system. The nanoLC-MS/MS analysis used to separate compounds was performed using the Ultimate 3000 nanocapillary chromatography system (Polygen, Gliwice, Poland). The separations were performed using a PepMap column (15 cm long, 75 μm ID, C18, 3 μm particle size, 100 Å pore size, Thermo-Scientific). The gradient was formed using 0.1% HCOOH in H2O (solvent A) and 0.1% HCOOH in ACN (solvent B), at a flow rate of 300 nl/min. The system was controlled by the Hystar software (Bruker Daltonics). A gradient was produced from 5 to 80% B in 100 min, then kept at 90% of phase B for 10 min. The mass spectrometry detection was performed in positive ion mode by electrospray ion trap mass spectrometry (Amazon SL from Bruker Daltonics, Bremen, Germany). The retention time of 25I-NBOMe was about 30.3 min. The acquired mass spectra were analyzed using the Bruker Data Analysis v. 4.0 software (Bruker Daltonics). The data presented in tables are calculated as intensity per 1 mg of wet tissue or 1 ml of blood serum, while mass spectra represent the real intensity of 25I-NBOMe-precursor ion from tissue samples with different mass.

[5] = system: p21 (CDC42/RAC)-activated kinase 1 (PAK1); design: method as in PMID 32597268; conditions: cited from earlier work
[6] = system: DNA; assay: Alkaline comet assay on nuclei from frontal cortex and hippocampus; format: in vivo, rat; conditions: for DNA damage (tail moment): single and repeated (× 7) 0.3 mg/kg sc, 72 h after administration, vs control
Experimental: as §1
The alkaline comet assay was performed with the use of CometAssay® Reagent Kit for Single Cell Gel Electrophoresis Assay. At 72 h after the acute and chronic treatment with 25I-NBOMe (0.3 mg/kg, sc × 7 days), LSD (0.05 mg/kg, ip × 7 days) or MDMA (5 mg/kg, ip × 4 doses every second day) animals were sacrificed by decapitation and the frontal cortex (that consist of the sum of FC and mPFC) and hippocampus were dissected. After homogenization and several purification and centrifugation stages (as described previously in[17]), the nuclear suspension was obtained using a sucrose gradient (2.8 M/2.6 M, bottom to top). The nuclear fraction was mixed with low melting point agarose and transferred immediately onto CometSlides™. The following steps, including membrane lysis, DNA unwinding, alkaline electrophoresis, and staining (SYBR® Gold), were carried out according to Trevigen CometAssay® protocol. Stained sections were acquired and analyzed under a fluorescence microscope (Nikon Eclipse50i, Japan) equipped with a camera and NIS Elements software. The data was analyzed using OpenComet software v.1.3 (cometbio.org), a plugin of ImageJ program v.1.47 (NIH, Bethesda, MD, USA). DNA damage was presented as a tail moment. Tail moment incorporates a measure of both the smallest detectable size of migrating DNA (reflected by the comet tail length) and the number of damaged pieces (represented by the intensity of DNA in the tail).

SMILES: COc1cc(CCNCc2ccccc2OC)c(OC)cc1I [25I-NBOMe, 4-Iodo-2,5-dimethoxy-N-(2-methoxybenzyl)phenethylamine]
- Cell viability [1]: decreased the viability
- Cell viability [2]: decreased the viability
- QT interval [3]: prolonged
- Accumulation in brain tissue after repeated administration ([4]; 0.3 mg/kg × 7 vs single dose, 72 h): caused drug accumulation in the brain tissue
- Intensity of the 25I-NBOMe precursor ion (~ 428 m/z) ([4]; blood plasma, single 1 mg/kg, 15 min after injection, per 1 ml of blood serum, one sample preparation): 9.24 × 10^4 a.u.
- Intensity of the 25I-NBOMe precursor ion (~ 428 m/z) ([4]; blood plasma, single 10 mg/kg, 15 min after injection, per 1 ml of blood serum, one sample preparation): 5.44 × 10^5 a.u.
- Crossing of the blood–brain barrier (BBB) ([4]; detected in blood serum and several brain regions 15 min after injection): easily crosses the blood–brain barrier (BBB)
- Intensity of the 25I-NBOMe precursor ion (~ 428 m/z) ([4]; frontal cortex, chronic 0.3 mg/kg × 7 sc, 72 h after last injection, per 1 mg of wet tissue): 2.93 × 10^4 a.u.
- Intensity of the 25I-NBOMe precursor ion (~ 428 m/z) ([4]; frontal cortex, single 0.3 mg/kg sc, 72 h after injection, per 1 mg of wet tissue): 2.25 × 10^3 a.u.
- Intensity of the 25I-NBOMe precursor ion (~ 428 m/z) ([4]; frontal cortex, single 1 mg/kg, 15 min after injection, per 1 mg of wet tissue): 2.94 × 10^4 a.u.
- Intensity of the 25I-NBOMe precursor ion (~ 428 m/z) ([4]; frontal cortex, single 10 mg/kg, 15 min after injection, per 1 mg of wet tissue): 4.36 × 10^5 a.u.
- Intensity of the 25I-NBOMe precursor ion (~ 428 m/z) ([4]; hippocampus, chronic 0.3 mg/kg × 7 sc, 72 h after last injection, per 1 mg of wet tissue): 1.72 × 10^4 a.u.
- Intensity of the 25I-NBOMe precursor ion (~ 428 m/z) ([4]; hippocampus, single 0.3 mg/kg sc, 72 h after injection, per 1 mg of wet tissue): 6.89 × 10^3 a.u.
- Intensity of the 25I-NBOMe precursor ion (~ 428 m/z) ([4]; hippocampus, single 1 mg/kg, 15 min after injection, per 1 mg of wet tissue): 1.60 × 10^4 a.u.
- Intensity of the 25I-NBOMe precursor ion (~ 428 m/z) ([4]; hippocampus, single 10 mg/kg, 15 min after injection, per 1 mg of wet tissue): 2.71 × 10^5 a.u.
- Intensity of the 25I-NBOMe precursor ion (~ 428 m/z) ([4]; nucleus accumbens, chronic 0.3 mg/kg × 7 sc, 72 h after last injection, per 1 mg of wet tissue): 9.00 × 10^3 a.u.
- Intensity of the 25I-NBOMe precursor ion (~ 428 m/z) ([4]; nucleus accumbens, single 0.3 mg/kg sc, 72 h after injection, per 1 mg of wet tissue): 3.85 × 10^3 a.u.
- Intensity of the 25I-NBOMe precursor ion (~ 428 m/z) ([4]; nucleus accumbens, single 1 mg/kg, 15 min after injection, per 1 mg of wet tissue): 2.32 × 10^7 a.u.
- Intensity of the 25I-NBOMe precursor ion (~ 428 m/z) ([4]; nucleus accumbens, single 10 mg/kg, 15 min after injection, per 1 mg of wet tissue): 7.15 × 10^7 a.u.
- Intensity of the 25I-NBOMe precursor ion (~ 428 m/z) ([4]; striatum, chronic 0.3 mg/kg × 7 sc, 72 h after last injection, per 1 mg of wet tissue): 2.12 × 10^3 a.u.
- Intensity of the 25I-NBOMe precursor ion (~ 428 m/z) ([4]; striatum, single 0.3 mg/kg sc, 72 h after injection, per 1 mg of wet tissue): 1.61 × 10^3 a.u.
- Intensity of the 25I-NBOMe precursor ion (~ 428 m/z) ([4]; striatum, single 1 mg/kg, 15 min after injection, per 1 mg of wet tissue): 5.97 × 10^4 a.u.
- Intensity of the 25I-NBOMe precursor ion (~ 428 m/z) ([4]; striatum, single 10 mg/kg, 15 min after injection, per 1 mg of wet tissue): 6.95 × 10^5 a.u.
- In vitro activity of PAK1 [5]: reduced
- DNA damage (tail moment) ([6]; frontal cortex): produced DNA damage
- DNA damage after multiple injections compared with a single dose ([6]; hippocampus, 0.3 mg/kg sc × 7 vs single, 72 h): stronger than after a single dose
- DNA damage (tail moment) ([6]; hippocampus): produced DNA damage
